The results in this text go back to patent US11098010B2 (priority 2017, dated 2021).

The structures appear in SMILES notation. Structures can show the parent of a compound that is named as a salt. A value given as a limit tells only on which side of the number the result lay.

One test concerns HBV rcDNA in HepDE19 cells. Description: HepDE19 assay with bDNA quantitation of HBV rcDNA. The settings on record: HepDE19 cells, inhibition of rcDNA formation, 7 day incubation, top concentration 25 μM; read-out: DE-19 bDNA EC50. Type of test: cell-based, hepatitis B virus (HBV).
On to `O=C(N[C@@H]1c2cccc(C(=O)Nc3ccc(F)c(F)c3)c2C[C@H]1O)OCc1ccccn1` [Compound 60, O-pyridin-2-ylmethyl, N-((1R,2R)-4-((3,4-difluorophenyl)carbamoyl)-2-hydroxy-2,3-dihydro-1H-inden-1-yl) carbamate], for which the EC50 is more than 25 µM.

For `O=C(NC1CSc2c(C(=O)Nc3ccc(F)c(F)c3)ccc(F)c21)OCc1ccccn1` (stereo not drawn) [Compound 63, O-Pyridin-2-ylmethyl, N-(7-((3,4-difluorophenyl)carbamoyl)-4-fluoro-2,3-dihydrobenzo[b]thiophen-3-yl) carbamate], the EC50 was more than 25 µM.

Take `O=C(NC1CSc2c(C(=O)Nc3ccc(F)c(F)c3)ccc(F)c21)OCc1ccccn1` (stereo not drawn) [Compound 64, O-Pyridin-2-ylmethyl, N-(7-((3,4-difluorophenyl)carbamoyl)-4-fluoro-2,3-dihydrobenzo[b]thiophen-3-yl) carbamate]: the EC50 turned out to be 0.84 µM.

Regarding `O=C(NC1CSc2c(C(=O)Nc3ccc(F)c(Cl)c3)ccc(F)c21)OCc1ccccn1` (stereo not drawn) [Compound 65, O-Pyridin-2-ylmethyl, N-(7-((3-chloro-4-fluorophenyl)carbamoyl)-4-fluoro-2,3-dihydrobenzo[b]thiophen-3-yl) carbamate], the EC50 is more than 25 µM.

As for `O=C(NC1CSc2c(C(=O)Nc3ccc(F)c(Cl)c3)ccc(F)c21)OCc1ccccn1` (stereo not drawn) [Compound 66, O-Pyridin-2-ylmethyl, N-(7-((3-chloro-4-fluorophenyl)carbamoyl)-4-fluoro-2,3-dihydrobenzo[b]thiophen-3-yl) carbamate], the EC50 stood at 0.44 µM.

Regarding `O=C(N[C@H]1CCc2c(C(=O)Nc3ccc(F)c(Cl)c3)ccc(F)c21)OCCF` [Compound 76, O-2-Fluoroethyl, N—(S)-(4-((3-chloro-4-fluorophenyl)carbamoyl)-7-fluoro-2,3-dihydro-1H-inden-1-yl) carbamate], the EC50 was 0.11 µM.

The test is the same for the next values; noted with them: Hepatitis B virus, HepDE19, 168 h, HepDE19 cells, inhibition of rcDNA formation, 7 day incubation, top concentration 25 μM; read-out: DE-19 bDNA EC50.
In the case of `O=C(N[C@H]1CCc2c(C(=O)Nc3ccc(F)c(Cl)c3)ccc(F)c21)OCc1cccc[n+]1[O-]` [Compound 67, (S)-2-((((4-((3-Chloro-4-fluorophenyl)carbamoyl)-7-fluoro-2,3-dihydro-1H-inden-1-yl)carbamoyl)oxy)methyl)pyridine 1-oxide], the EC50 came to 0.31 µM.

Turning to `O=C(N[C@H]1CCc2c(C(=O)Nc3ccc(F)c(Cl)c3)ccc(F)c21)OCCC(F)(F)F` [Compound 70, O-3,3,3-Trifluoropropyl, N—(S)-(4-((3-chloro-4-fluorophenyl)carbamoyl)-7-fluoro-2,3-dihydro-1H-inden-1-yl) carbamate], the EC50 worked out at 0.29 µM.

As for `Cn1ccc(COC(=O)N[C@H]2CCc3c(C(=O)Nc4ccc(F)c(Cl)c4)ccc(F)c32)n1` [Compound 71, O-(1-Methyl-1H-pyrazol-3-yl)methyl, N—(S)-(4-((3-chloro-4-fluorophenyl)carbamoyl)-7-fluoro-2,3-dihydro-1H-inden-1-yl) carbamate], the EC50 is 0.06 µM.

`O=C1C[C@@H](OC(=O)N[C@H]2CCc3c(C(=O)Nc4ccc(F)c(Cl)c4)ccc(F)c32)CN1` [Compound 72, O—(R)-5-Oxopyrrolidin-3-yl, N—((S)-4-((3-chloro-4-fluorophenyl)carbamoyl)-7-fluoro-2,3-dihydro-1H-inden-1-yl) carbamate]: the EC50 is 0.24 µM.

In the case of `Cc1cccc(COC(=O)N[C@H]2CCc3c(C(=O)Nc4ccc(F)c(Cl)c4)ccc(F)c32)n1` [Compound 73, O-(6-Methylpyridin-2-yl)methyl, N—(S)-(4-((3-chloro-4-fluorophenyl)carbamoyl)-7-fluoro-2,3-dihydro-1H-inden-1-yl) carbamate], the EC50 was found to be 0.25 µM.

Regarding `O=C(NCc1ccccn1)O[C@H]1CCc2c(C(=O)Nc3ccc(F)c(Cl)c3)ccc(F)c21` [Compound 74, N—(S)-4-((3-Chloro-4-fluorophenyl)carbamoyl)-7-fluoro-2,3-dihydro-1H-inden-1-yl, O-(pyridin-2-ylmethyl) carbamate], the EC50 came out at 1.6 µM.

Take `COCC(=O)N[C@H]1CCc2c(C(=O)Nc3ccc(F)c(Cl)c3)ccc(F)c21` [Compound 75, (S)—N-(3-Chloro-4-fluorophenyl)-7-fluoro-1-(2-methoxyacetamido)-2,3-dihydro-1H-indene-4-carboxamide]: the EC50 was determined as 1.4 µM.

For the molecule `CC(=O)N[C@H]1CCc2c(C(=O)Nc3ccc(F)c(Cl)c3)ccc(F)c21` [Compound 77, (S)-1-Acetamido-N-(3-chloro-4-fluorophenyl)-7-fluoro-2,3-dihydro-1H-indene-4-carboxamide], the EC50 is 0.2 µM.

Consider `O=C(Nc1ccc(F)c(Cl)c1)c1ccc(F)c2c1CC[C@@H]2O` [Compound 81, (S)—N-(3-Chloro-4-fluorophenyl)-7-fluoro-1-hydroxy-2,3-dihydro-1H-indene-4-carboxamide], for which the EC50 amounted to 0.67 µM.

As for `O=C(N[C@H]1CCc2c(C(=O)Nc3ccc(F)c(Cl)c3)ccc(F)c21)OCC(F)F` [Compound 84, O-2,2-Difluoroethyl, N—(S)-(4-((3-chloro-4-fluorophenyl)carbamoyl)-7-fluoro-2,3-dihydro-1H-inden-1-yl) carbamate], the EC50 worked out at 0.17 µM.

As to `O=C(N[C@H]1CCc2c(C(=O)Nc3ccc(F)c(Cl)c3)ccc(F)c21)OCc1ccncn1` [Compound 85, O-Pyrimidin-4-ylmethyl, N—(S)-(4-((3-chloro-4-fluorophenyl)carbamoyl)-7-fluoro-2,3-dihydro-1H-inden-1-yl) carbamate], the EC50 worked out at 0.58 µM.

Regarding `CNC(=O)O[C@H]1CCc2c(C(=O)Nc3ccc(F)c(Cl)c3)ccc(F)c21` [Compound 89, O—(S)-4-((3-Chloro-4-fluorophenyl)carbamoyl)-7-fluoro-2,3-dihydro-1H-inden-1-yl, N-methyl Carbamate], the EC50 was 0.56 µM.

The same test, now with this note: Hepatitis B virus, HepDE19, 168 h, read-out: DE-19 bDNA EC50 (μM), HepDE19 cells, inhibition of rcDNA formation, 7 day incubation, top concentration 25 μM.
For the molecule `CC(=O)N1CC(F)(F)CC1COC(=O)N[C@H]1CCc2c(C(=O)Nc3ccc(F)c(Cl)c3)ccc(F)c21` (stereo partly drawn) [Compound 61, O-(1-Acetyl-4,4-difluoropyrrolidin-2-yl)methyl, N—((S)-4-((3-chloro-4-fluorophenyl)carbamoyl)-7-fluoro-2,3-dihydro-1H-inden-1-yl) carbamate], the EC50 was 0.4 µM.

Take `O=C(N[C@H]1CCc2c(C(=O)Nc3ccc(F)c(Cl)c3)ccc(F)c21)OCC1CCN(CC(F)(F)F)CC1` [Compound 62, O-(1-(2,2,2-Trifluoroethyl)piperidin-4-yl)methyl, N—(S)-(4-((3-chloro-4-fluorophenyl)carbamoyl)-7-fluoro-2,3-dihydro-1H-inden-1-yl) carbamate]: the EC50 was 1.8 µM.

Turning to `C[C@H](OC(=O)N[C@H]1CCc2c(C(=O)Nc3ccc(F)c(Cl)c3)ccc(F)c21)c1ccccn1` [Compound 68, O—(S)-1-(Pyridin-2-yl)ethyl, N—((S)-4-((3-chloro-4-fluorophenyl)carbamoyl)-7-fluoro-2,3-dihydro-1H-inden-1-yl) carbamate], the EC50 was 0.39 µM.

As for `O=C(N[C@H]1CCc2c(C(=O)Nc3ccc(F)c(Cl)c3)ccc(F)c21)OC[C@@H]1CCCN1` [Compound 69, O—(S)-Pyrrolidin-2-ylmethyl, N—((S)-4-((3-chloro-4-fluorophenyl)carbamoyl)-7-fluoro-2,3-dihydro-1H-inden-1-yl) carbamate Hydrochloride], the EC50 was found to be 5.1 µM.

Turning to `O=C(N[C@H]1CCc2c(C(=O)Nc3ccc(F)c(Cl)c3)ccc(F)c21)OCc1cnccn1` [Compound 78, O-Pyrazin-2-ylmethyl, N—(S)-(4-((3-chloro-4-fluorophenyl)carbamoyl)-7-fluoro-2,3-dihydro-1H-inden-1-yl) carbamate], the EC50 came to 0.09 µM.

In the case of `O=C(N[C@H]1CCc2c(C(=O)Nc3ccc(F)c(Cl)c3)ccc(F)c21)OCc1ncccn1` [Compound 79, O-Pyrimidin-2-ylmethyl, N—(S)-(4-((3-chloro-4-fluorophenyl)carbamoyl)-7-fluoro-2,3-dihydro-1H-inden-1-yl) carbamate], the EC50 was found to be 0.12 µM.

Consider `O=C(N[C@H]1CCc2c(C(=O)Nc3ccc(F)c(Cl)c3)ccc(F)c21)OCc1cc(Cl)ccn1` [Compound 80, O-(4-Chloropyridin-2-yl)methyl, N—(S)-(4-((3-chloro-4-fluorophenyl)carbamoyl)-7-fluoro-2,3-dihydro-1H-inden-1-yl) carbamate Hydrochloride], for which the EC50 was 0.33 µM.

Take `O=C(N[C@H]1CCc2c(C(=O)Nc3ccc(F)c(Cl)c3)ccc(F)c21)OCc1ccon1` [Compound 82, O-Isoxazol-3-ylmethyl, N—(S)-(4-((3-chloro-4-fluorophenyl)carbamoyl)-7-fluoro-2,3-dihydro-1H-inden-1-yl) carbamate]: the EC50 came to 0.13 µM.

Take `O=C(N[C@H]1CCc2c(C(=O)Nc3ccc(F)c(Cl)c3)ccc(F)c21)OCCc1ccccn1` [Compound 83, O-2-(Pyridin-2-yl)ethyl, N—(S)-(4-((3-chloro-4-fluorophenyl)carbamoyl)-7-fluoro-2,3-dihydro-1H-inden-1-yl) carbamate Hydrochloride]: the EC50 came out at 0.18 µM.

Take `O=C(N[C@H]1CCc2c(C(=O)Nc3ccc(F)c(Cl)c3)ccc(F)c21)OCCCN1CCCC1=O` [Compound 86, O-3-(2-Oxopyrrolidin-1-yl)propyl, N—(S)-(4-((3-chloro-4-fluorophenyl)carbamoyl)-7-fluoro-2,3-dihydro-1H-inden-1-yl) carbamate]: the EC50 turned out to be 0.43 µM.

In the case of `Cc1cccn2cc(COC(=O)N[C@H]3CCc4c(C(=O)Nc5ccc(F)c(Cl)c5)ccc(F)c43)nc12` [Compound 87, O-(8-Methylimidazo[1,2-a]pyridin-2-yl)methyl, N—(S)-(4-((3-chloro-4-fluorophenyl)carbamoyl)-7-fluoro-2,3-dihydro-1H-inden-1-yl) carbamate Hydrochloride], the EC50 turned out to be 0.2 µM.

Take `O=C(N[C@H]1CCc2c(C(=O)Nc3ccc(F)c(Cl)c3)ccc(F)c21)OCC(F)(F)F` [Compound 88, O-2,2,2-Trifluoroethyl, N—(S)-(4-((3-chloro-4-fluorophenyl)carbamoyl)-7-fluoro-2,3-dihydro-1H-inden-1-yl) carbamate]: the EC50 was found to be 0.21 µM.
